The values below are quoted from earlier work in US20220202682A1, “INCREASING THE STABILITY OF AGENTS FOR THE TREATMENT OF KERATINOUS MATERIAL” (Henkel AG & Co. KGaA, priority 2019, published 2022).

The conditions of this data set: 25° C.
With `O=S(=O)([O-])c1ccc(N=Nc2c(O)ccc3ccccc23)cc1.[Na+]` [Acid Orange 7, sodium salt of 4-[(2-hydroxy-1-naphthyl)azo]benzene sulphonate], the solubility in water entry is “more than 7 g/L”.

For the compound `Nc1cc(S(=O)(=O)[O-])cc2cc(S(=O)(=O)[O-])c(N=Nc3ccccc3)c(O)c12.[Na+].[Na+]` [Acid Red 33, disodium salt of 5-amino-4-hydroxy-3-(phenylazo)-naphthalene-2,7-disulphonate], the solubility in water was 2500 µg/mL. As for `O=C([O-])c1c(Cl)c(Cl)c(Cl)c(Cl)c1-c1c2c(Br)cc(=O)c(Br)c-2oc2c(Br)c(O)cc(Br)c12.O=C([O-])c1c(Cl)c(Cl)c(Cl)c(Cl)c1-c1c2c(Br)cc(=O)c(Br)c-2oc2c(Br)c(O)cc(Br)c12.[Na+].[Na+]` [Acid Red 92, disodium salt of 3,4,5,6-tetrachloro-2-(1,4,5,8-tetrabromo-6-hydroxy-3-oxoxanthen-9-yl)benzoic acid], the solubility in water entry is given as “greater than 10 g/L”. With `O=C([O-])C1=NN(c2ccc(S(=O)(=O)[O-])cc2)C(=O)C1N=Nc1ccc(S(=O)(=O)[O-])cc1.[Na+].[Na+].[Na+]` (stereo not shown) [Acid Yellow 23, trisodium salt of 4,5-dihydro-5-oxo-1-(4-sulfophenyl)-4-((4-sulfophenyl)azo)-1H-pyrazole-3-carboxylic acid], the “solubility in water” value is reported as “highly soluble”.
